{
  "source": "patent US20230271949A1",
  "about": "“GLP-1R MODULATING COMPOUNDS” (ASCLETIS BIOSCIENCE CO., LTD., priority 2022, published 2023)",
  "note": "pEC50: −log10 of the molar value.",
  "data": [
    {"molecular_target": "GLP-1R (Homo sapiens, UniProt P43220)", "sequence (P43220 24-463)": "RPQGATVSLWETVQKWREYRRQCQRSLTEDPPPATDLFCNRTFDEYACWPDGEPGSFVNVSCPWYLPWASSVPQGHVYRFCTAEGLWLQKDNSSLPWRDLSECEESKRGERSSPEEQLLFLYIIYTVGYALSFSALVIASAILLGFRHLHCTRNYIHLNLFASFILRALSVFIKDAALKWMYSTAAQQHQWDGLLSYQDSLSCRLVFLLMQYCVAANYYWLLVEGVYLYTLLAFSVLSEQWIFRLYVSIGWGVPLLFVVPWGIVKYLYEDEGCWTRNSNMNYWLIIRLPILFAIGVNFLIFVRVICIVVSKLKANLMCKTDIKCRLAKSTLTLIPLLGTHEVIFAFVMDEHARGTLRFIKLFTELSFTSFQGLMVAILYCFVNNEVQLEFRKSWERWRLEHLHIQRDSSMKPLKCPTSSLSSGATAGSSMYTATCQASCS", "assay": "GLP-1R agonist cAMP stimulation assay (HTRF cAMP)", "type": "cell-based", "settings": "HEK293 cell line expressing GLP-1 target; HTRF cAMP agonist mode, 30 min at RT", "outline": "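GLP-1R-expressing cells were stimulated with 10-point, 3-fold compound dilutions for 30 min at RT; HTRF cAMP detection reagents were then added for 60 min and the 665/615 ratio read. Ratios were converted to cAMP via a standard curve and % activity scaled between DMSO and top-concentration GLP-1(7-37) reference wells.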", "values": [
      {"smiles": "Cc1n[nH]c2ncc(C(=O)Nc3ccc4c(c3)nc(CN3CC=C(c5cccc(OCc6ccc(Cl)cc6F)n5)CC3)n4C[C@@H]3CCO3)nc12", "note": "[Compound 238]", "pEC50": 7.92},
      {"smiles": "CCn1cncc1Cn1c(CN2CC=C(c3cccc4c3OC(C)(c3ccc(Cl)cn3)O4)CC2)nc2cc(NC(=O)c3cc(F)c4[nH]nc(C)c4c3)ccc21", "note": "(stereo not shown) [Compound 410]", "pEC50": 9.51},
      {"smiles": "Cc1cc(NC(=O)c2ccc3c(c2)nc(CN2CCC(c4cccc(OCc5ccc(Cl)cn5)n4)CC2)n3C[C@@H]2CCO2)cc2c1NC(=O)C21CC1", "note": "[Compound 131]", "pEC50": 8.92},
      {"smiles": "Cc1n[nH]c2c(F)cc(NC(=O)c3ccc4c(c3)nc(CN3CCC(c5cccc(OCc6ccc(C#N)c7c6ncn7C)n5)CC3)n4C[C@@H]3CCO3)cc12", "note": "[Compound 379]", "pEC50": 8.51},
      {"smiles": "O=C(Nc1cc(C(F)(F)F)c2c(c1)C1(CC1)C(=O)N2)c1ccc2c(c1)nc(CN1CC=C(c3cccc(OCc4ccc(Cl)cc4F)n3)CC1)n2C[C@@H]1CCO1", "note": "[Compound 157]", "pEC50": 9.11},
      {"smiles": "COCCn1c(C2CC23CCN(c2cccc(OCc4ccc(C#N)cc4F)n2)CC3)nc2cc(C(=O)Nc3ccc4[nH]nc(C)c4c3)ccc21", "note": "(stereo not shown) [Compound 7]", "pEC50": 9.46},
      {"smiles": "Cc1cc(C(=O)Nc2ccc3c(c2)nc(CN2CC=C(c4cccc5c4OC(C)(c4ccc(Cl)cc4F)O5)CC2)n3C[C@@H]2CCO2)cc2[nH]c(=O)[nH]c12", "note": "(stereo partly shown) [Compound 309]", "pEC50": 9.06},
      {"smiles": "Cc1n[nH]c2ccc(NC(=O)c3ccc4c(c3)nc(CN3CC=C(c5cccc(OCc6ccc(Cl)cc6F)n5)CC3)n4C[C@@H]3CCO3)c(F)c12", "note": "[Compound 176]", "pEC50": 9.06},
      {"smiles": "Cc1n[nH]c2ncc(C(=O)Nc3ccc4c(c3)nc(CN3CC=C(c5cccc(OCc6ccc(C#N)cc6F)n5)CC3)n4C[C@@H]3CCO3)cc12", "note": "[Compound 234]", "pEC50": 8.41},
      {"smiles": "Cc1n[nH]c2ccc(C(=O)Nc3ccc4c(c3)nc(CN3CC=C(c5cccc(OCc6ccc(Cl)cn6)n5)CC3)n4C[C@@H]3CCO3)cc12", "note": "[Compound 198]", "pEC50": 9.46},
      {"smiles": "Cc1cc(C(=O)Nc2ccc3c(c2)nc(CN2CCC(c4cccc5c4OC(C)(c4ccc(Cl)cc4F)O5)CC2)n3C[C@@H]2CCO2)cc2[nH]c(=O)[nH]c12", "note": "(stereo partly shown) [Compound 345]", "pEC50": 9.68},
      {"smiles": "Cc1n[nH]c2ccc(NC(=O)c3ccc4c(c3)nc(CN3CCC(c5cccc(OCc6c(F)cnc7ccccc67)n5)CC3)n4C[C@@H]3CCO3)cc12", "note": "[Compound 380]", "pEC50": 8.16},
      {"smiles": "O=C(NCC(=O)N1CC[C@H]1C(=O)O)c1ccc2c(c1)nc(CN1CCC(c3cccc(OCc4ccc(Cl)cc4F)n3)CC1)n2C[C@@H]1CCO1", "note": "[Compound 61]", "pEC50": 8.17},
      {"smiles": "Cc1n[nH]c2c(C)cc(C(=O)Nc3ccc4c(c3)nc(C(F)(F)N3CC=C(c5cccc(OCc6ccc(Cl)cc6F)n5)CC3)n4C[C@@H]3CCO3)cc12", "note": "[Compound 256]", "pEC50": 7.90},
      {"smiles": "O=C(Nc1ccc2nc(CN3CC=C(c4cccc(OCc5ccc(Cl)cc5F)n4)CC3)n(C[C@@H]3CCO3)c2c1)c1cc(C(F)(F)F)c2c(c1)C1(CC1)C(=O)N2", "note": "[Compound 288]", "pEC50": 8.41},
      {"smiles": "CC(=O)c1n[nH]c2ccc(C(=O)Nc3ccc4c(c3)nc(CN3CC=C(c5cccc(OCc6ccc(Cl)cc6F)n5)CC3)n4C[C@@H]3CCO3)cc12", "note": "[Compound 395]", "pEC50": 7.99},
      {"smiles": "O=C(Nc1cc(F)c2c(c1)C1(CC1)C(=O)N2)c1ccc2nc(CN3CC=C(c4cccc(OCc5ccc(Cl)cc5F)n4)CC3)n(C[C@@H]3CCO3)c2c1", "note": "[Compound 271]", "pEC50": 9.01},
      {"smiles": "Cc1n[nH]c2c(Cl)cc(NC(=O)c3ccc4c(c3)nc(CN3CCC(c5cccc(OCc6ccc(Cl)cc6F)n5)CC3)n4C[C@@H]3CCO3)cc12", "note": "[Compound 110]", "pEC50": 8.35},
      {"smiles": "Cc1n[nH]c2ccc(C(=O)Nc3ccc4c(c3)nc(CN3CC=C(c5cccc(OCc6ccc(C#N)cc6F)n5)CC3)n4C[C@@H]3CCO3)cc12", "note": "[Compound 235]", "pEC50": 9.38},
      {"smiles": "Cc1cc(C(=O)Nc2ccc3c(c2)nc(CN2CC=C(c4cccc(OCc5ccc(Cl)cc5F)n4)CC2)n3C[C@@H]2CCO2)cc2c1NC(=O)C21CC1", "note": "[Compound 209]", "pEC50": 9.49},
      {"smiles": "O=C(NCC(=O)N1CCC[C@H]1C(=O)O)c1ccc2c(c1)nc(CN1CCC(c3cccc(OCc4ccc(Cl)cc4F)n3)CC1)n2C[C@@H]1CCO1", "note": "[Compound 60]", "pEC50": 7.65},
      {"smiles": "CCc1cc(NC(=O)c2ccc3c(c2)nc(CN2CC=C(c4cccc(OCc5ccc(Cl)cc5F)n4)CC2)n3C[C@@H]2CCO2)cc2c(C)n[nH]c12", "note": "[Compound 170]", "pEC50": 8.45},
      {"smiles": "Cc1n[nH]c2c(C(F)(F)F)cc(NC(=O)c3ccc4c(c3)nc(CN3CCC(c5cccc(OCc6ccc(Cl)cc6F)n5)CC3)n4C[C@@H]3CCO3)cc12", "note": "[Compound 106]", "pEC50": 8.64},
      {"smiles": "Cc1n[nH]c2ccc(NC(=O)c3ccc4c(c3)nc(CN3CC=C(c5cccc(OCc6ccc(C#N)c7ccccc67)n5)CC3)n4C[C@@H]3CCO3)cc12", "note": "[Compound 366]", "pEC50": 8.22},
      {"smiles": "COCCn1c(Cc2ccc(-c3cccc(OCc4ccc(C#N)cc4F)n3)cc2)nc2cc(C(=O)NCC(O)c3ccc(O)cc3)ccc21", "note": "(stereo not shown) [Compound 11]", "pEC50": 6.25},
      {"smiles": "COCCn1c(CN2CCC(c3cccc(OCc4ccc(Cl)cc4F)n3)CC2)nc2cc(C(=O)NCc3ccc(O)nc3)ccc21", "note": "[Compound 34]", "pEC50": 7.05},
      {"smiles": "Cc1cc2c(C#N)ccc(COc3cccc(C4CCN(Cc5nc6cc(NC(=O)c7ccc8[nH]nc(C(F)(F)F)c8c7)ccc6n5C[C@@H]5CCO5)CC4)n3)c2o1", "note": "[Compound 371]", "pEC50": 8.50},
      {"smiles": "Cc1n[nH]c2ccc(C(=O)Nc3ccc4c(c3)nc(C(F)(F)N3CC=C(c5cccc(OCc6ccc(Cl)cc6F)n5)CC3)n4C[C@@H]3CCO3)cc12", "note": "[Compound 257]", "pEC50": 7.82},
      {"smiles": "Cc1n[nH]c2c(Cl)cc(C(=O)Nc3ccc4c(c3)nc(Cc3cc(F)c(-c5cccc6c5OC(C)(c5ccc(Cl)cc5F)O6)cc3F)n4CC3CCO3)cc12", "note": "(stereo not shown) [Compound 320]", "pEC50": 7.86},
      {"smiles": "Cc1n[nH]c2c(F)cc(NC(=O)c3ccc4nc(CN5CC=C(c6cccc(OCc7ccc(Cl)cc7F)n6)CC5)n(CC5CCO5)c4c3)cc12", "note": "(stereo not shown) [Compound 262]", "pEC50": 8.51},
      {"smiles": "COC(=O)[C@@H]1CC(F)(F)CN1C(=O)CNC(=O)c1ccc2c(c1)nc(CN1CC=C(c3cccc(OCc4ccc(Cl)cc4F)n3)CC1)n2C[C@@H]1CCO1", "note": "[Compound 69]", "pEC50": 7.15},
      {"smiles": "Cc1n[nH]c2cnc(C(=O)Nc3ccc4c(c3)nc(CN3CC=C(c5cccc(OCc6ccc(Cl)cc6F)n5)CC3)n4C[C@@H]3CCO3)nc12", "note": "[Compound 240]", "pEC50": 7.68},
      {"smiles": "Cc1n[nH]c2c(C(F)(F)F)cc(NC(=O)c3ccc4c(c3)nc(CN3CC=C(c5cccc(OCc6ccc(Cl)cc6F)n5)CC3)n4C[C@@H]3CCO3)cc12", "note": "[Compound 156]", "pEC50": 9.17},
      {"smiles": "COCCn1c(Cc2ccc(-c3cccc(OCc4ccc(C#N)cc4F)n3)cc2)nc2cc(C(=O)NCCc3ccc(N)cc3)ccc21", "note": "[Compound 9]", "pEC50": 5.53},
      {"smiles": "C[C@H](NC(=O)c1ccc2c(c1)nc(CN1CC=C(c3cccc(OCc4ccc(Cl)cc4F)n3)CC1)n2C[C@@H]1CCO1)C(=O)N1CC(F)(F)C[C@H]1C(=O)O", "note": "[Compound 73]", "pEC50": 9.28},
      {"smiles": "C[C@H](NC(=O)c1ccc2c(c1)nc(CN1CCC(c3cccc(OCc4ccc(Cl)cc4F)n3)CC1)n2C[C@@H]1CCO1)C(=O)N1C[C@H](O)C[C@H]1C(=O)O", "note": "[Compound 57]", "pEC50": 8.85},
      {"smiles": "CCn1cncc1Cn1c(CN2CCC(c3cccc(OCc4ccc(Cl)cc4F)n3)CC2)nc2cc(NC(=O)c3cc(F)c4[nH]nc(C)c4c3)ccc21", "note": "[Compound 259]", "pEC50": 9.04},
      {"smiles": "C=C(C)c1n[nH]c2ccc(C(=O)Nc3ccc4c(c3)nc(Cc3c(F)cc(-c5cccc6c5OC(C)(c5ccc(Cl)cc5F)O6)cc3F)n4CC3CCO3)cc12", "note": "(stereo not shown) [Compound 327]", "pEC50": 8.40},
      {"smiles": "COCCn1c(CN2CCC(c3cccc(OCc4ccc(Cl)cc4F)n3)CC2)nc2cc(C(=O)NCCc3c[nH]c4ccc(O)cc34)ccc21", "note": "[Compound 17]", "pEC50": 6.39},
      {"smiles": "Cc1n[nH]c2cc(F)c(NC(=O)c3ccc4c(c3)nc(CN3CCC(c5cccc(OCc6ccc(Cl)cc6F)n5)CC3)n4C[C@@H]3CCO3)cc12", "note": "[Compound 123]", "pEC50": 8.26},
      {"smiles": "N#Cc1ccc(COc2cccc(C3=CCN(Cc4nc5cc(C(=O)Nc6cc(F)c7c(c6)C6(CC6)C(=O)N7)ccc5n4C[C@@H]4CCO4)CC3)n2)c(F)c1", "note": "[Compound 179]", "pEC50": 9.12},
      {"smiles": "Cc1cc(NC(=O)c2ccc3c(c2)nc(CN2CC=C(c4cccc5c4OC(C)(c4ccc(Cl)cc4F)O5)CC2)n3C[C@@H]2CCO2)cc2[nH]c(=O)[nH]c12", "note": "(stereo partly shown) [Compound 303]", "pEC50": 9.04},
      {"smiles": "C=C(C)c1n[nH]c2ccc(C(=O)Nc3ccc4c(c3)nc(CN3CC=C(c5cccc6c5OC(C)(c5ccc(Cl)cc5F)O6)CC3)n4CC3CCO3)cc12", "note": "(stereo not shown) [Compound 315]", "pEC50": 8.99},
      {"smiles": "COCCn1c(CN2CCC(c3cccc(OCc4ccc(Cl)cc4F)n3)CC2)nc2cc(C(=O)NCc3ccc(O)c(C(=O)OC)c3)ccc21", "note": "[Compound 36]", "pEC50": "< 5.00"},
      {"smiles": "Cc1cc2c(C#N)ccc(COc3cccc(C4=CCN(Cc5nc6cc(C(=O)Nc7cc(F)c8[nH]nc(C)c8c7)ccc6n5C[C@@H]5CCO5)CC4)n3)c2s1", "note": "[Compound 350]", "pEC50": 9.29},
      {"smiles": "COCCn1c(CN2CCC(c3cccc(OCc4ccc(Cl)cc4F)n3)CC2)nc2cc(C(=O)NCCc3nc4ccccc4[nH]3)ccc21", "note": "[Compound 22]", "pEC50": 5.86},
      {"smiles": "O=C(N[C@@H](Cc1ccc(O)cc1)C(=O)O)c1ccc2c(c1)nc(CN1CCC(c3cccc(OCc4ccc(Cl)cc4F)n3)CC1)n2C[C@@H]1CCO1", "note": "[Compound 51]", "pEC50": 6.87},
      {"smiles": "Cc1cc(C(=O)Nc2ccc3c(c2)nc(CN2CC=C(c4cccc(OCc5ccc(C#N)cc5F)n4)CC2)n3C[C@@H]2CCO2)cc2c(C(F)F)n[nH]c12", "note": "[Compound 228]", "pEC50": 8.90},
      {"smiles": "COCCn1c(CN2CCC(c3cccc(OCc4ccc(Cl)cc4F)n3)CC2)nc2cc(C(=O)NCCc3ccc(C(F)(F)F)cc3)ccc21", "note": "[Compound 23]", "pEC50": "< 5.00"},
      {"smiles": "Cc1n[nH]c2ccc(NC(=O)c3ccc4c(c3)nc(CN3CCC(c5cccc(OCc6ccc(C#N)c7ccccc67)n5)CC3)n4C[C@@H]3CCO3)cc12", "note": "[Compound 378]", "pEC50": 8.99},
      {"smiles": "O=C(Nc1ncc2[nH]cnc2n1)c1ccc2c(c1)nc(CN1CCC(c3cccc(OCc4ccc(Cl)cc4F)n3)CC1)n2C[C@@H]1CCO1", "note": "[Compound 89]", "pEC50": 7.06},
      {"smiles": "O=C(Nc1ccc2c(c1)nc(CN1CC=C(c3cccc(OCc4ccc(Cl)cc4F)n3)CC1)n2C[C@@H]1CCO1)c1cc(C(F)(F)F)c2[nH]ncc2c1", "note": "[Compound 212]", "pEC50": 8.53}
    ]}
  ]
}
